The record followed here is patent publication US12583839B2, “PD-L1 antagonist compound” (ADLAI NORTYE BIOPHARMA CO., LTD., priority 2019, dated 2026).

Each structure is given as a SMILES string.

For this assay, the target named is T1, PD-1/PD-L1 (Homo sapiens, UniProt Q9NZQ7).
T1 construct: 60535 (PD-1/NFAT-Reporter-Jurkat); host or cells: CHO cells expressing PD-L1; Jurkat cells expressing PD-1
T1 sequence (Q9NZQ7 19-290): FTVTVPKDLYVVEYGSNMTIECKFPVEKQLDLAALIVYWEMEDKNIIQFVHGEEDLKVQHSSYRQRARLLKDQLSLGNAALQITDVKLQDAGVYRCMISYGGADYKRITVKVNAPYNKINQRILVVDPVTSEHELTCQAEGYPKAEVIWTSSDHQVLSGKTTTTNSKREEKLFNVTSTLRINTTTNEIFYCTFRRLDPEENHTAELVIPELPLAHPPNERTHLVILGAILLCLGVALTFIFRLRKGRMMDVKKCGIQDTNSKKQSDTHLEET
Description: Detection of biological activity of PD-1/PD-L1 signaling inhibition at the cellular level (NFAT luciferase reporter, PD-1/NFAT-Reporter-Jurkat cells co-cultured with TCR activator/PD-L1-CHO cells). In kind it is cell-based. The settings on record: PD-1/NFAT-Reporter-Jurkat + TCR activator/PD-L1-CHO co-culture, 6 hours; Atezolizumab as positive control. From the text: Detection of Biological Activity of PD-1/PD-L1 Signaling Inhibition at the Cellular Level
This detection method is used for evaluating the biological activity of the compounds described in the present invention at the cellular level.
This detection method uses the luciferase reporter gene method to detect the biological activity of the compound on the inhibition of PD-1/PD-L1 signal at the cellular level. PD-1/NFAT—Reporter—Jurkat cells stably express human PD-1 and express the luciferase reporter gene regulated by NFAT elements; TCR activator/PD-L1-CHO cells stably express human PD-L1 and TCR activator elements. When the two cell lines were co-cultured, the binding of PD-1/PD-L1 inhibited the TCR signaling pathway, thereby inhibiting the expression of the downstream NFAT-controlled luciferase reporter gene. When PD-1/PD-L1 antibody or inhibitor is added, this inhibitory effect is reversed and luciferase is expressed, so that the effect of PD-1/PD-L1 inhibitor on luciferase activity can be detected.
PD-1/NFAT—Reporter—Jurkat cell (Cat: 60535) and TCR activator/PD-L1-CHO cell (Cat: 60536) were purchased from BPS Bioscience. Anti-human PD-L1 antibody (Atezolizumab, Cat: A2004) was purchased from Selleck; luciferase reporter gene expression detection kit (ONE-Glo™ Luciferase Assay System, Cat: E6120) was purchased from Promega; multifunction plate reader (SpectraMax i3x) was purchased from Molecular Devices.
The PD-1/NFAT—Reporter—Jurkat cells and TCR activator/PD-L1-CHO cells were cultured according to the routine cell culture protocol.
TCR activator/PD-L1-CHO cells were harvested and seeded into a 96-well culture plate at 35,000 cells/well in a medium volume of 100 μl and incubated overnight at 37° C. The next day, the medium was discarded, compound was added and incubated for 30 minutes, while a solvent control (dimethyl sulfoxide, DMSO, final concentration of 0.1%) and PD-L1 antibody (Atezolizumab, final concentration of about 10 nM) as positive controls were set. PD-1/NFAT-reporter-Jurkat cells were then added. After culturing for 6 hours, the luciferase activity was detected according to the instructions of the luciferase detection reagent.
Using PD-L1 antibody as a positive control, calculate the inhibition rate of PD-1/PD-L1 binding of the test compound (%)=(chemiluminescence value of compound treated wells/average value of chemiluminescence value of solvent control wells−1)/(average value of chemiluminescence value of PD-L1 antibody well/average value of chemiluminescence value of solvent control well−1)×100%.
According to the above detection method, the compounds of the present invention were evaluated for their biological activity at the cellular level, and the activity results are shown in the following table.
Background: A reporter such as luciferase makes a cellular process visible.
The term EC50 denotes the concentration at which the effect is half-maximal. With `COc1cc(Cn2ncc3c(-c4cccc(-c5ccc(CNC[C@@H]6CCC(=O)N6)c(OC(F)(F)F)c5)c4Cl)cccc32)c(Cl)cc1CN1CC[C@@H](C(=O)O)C1` [Compound 51], the EC50 is 692 nM.
The value for `COc1cc(-c2cccc(-c3cccc4c3cnn4Cc3cc(OC)c(CN4CC[C@@H](C(=O)O)C4)cc3Cl)c2Cl)ccc1CNC[C@@H]1CCC(=O)N1` [Compound 52] was 92 nM.
The value for `COc1cc(-c2cccc(-c3cccc4c3cnn4Cc3cc(OC)c(CN[C@@H](CO)C(=O)O)cc3Cl)c2Cl)ccc1CNC[C@@H]1CCC(=O)N1` [Compound 53] was 24 nM; that for `COc1cc(-c2cccc(-c3cccc4c3cnn4Cc3cc(OC)c(CNC[C@H]4CC[C@H](C(=O)O)CC4)cc3Cl)c2Cl)ccc1CNC[C@@H]1CCC(=O)N1` [Compound 54] was 38 nM; that for `COc1cc(-c2cccc(-c3cccc4c3cnn4Cc3cc(OC)c(CN(C)C[C@H]4CC[C@H](C(=O)O)CC4)cc3Cl)c2Cl)ccc1CNC[C@@H]1CCC(=O)N1` [Compound 55] was 66 nM.
The value for `COc1cc(-c2cccc(-c3cccc4c3cnn4Cc3cc(OC)c(CN[C@H]4CC[C@H](C(=O)O)CC4)cc3Cl)c2Cl)ccc1CNC[C@@H]1CCC(=O)N1` [Compound 56] was 50 nM; that for `COc1cc(-c2cccc(-c3cccc4c3cnn4Cc3cc(OC)c(CN(C)[C@H]4CC[C@H](C(=O)O)CC4)cc3Cl)c2Cl)ccc1CNC[C@@H]1CCC(=O)N1` [Compound 57] was 38 nM.
In the case of `COc1cc(-c2cccc(-c3cccc4c3cnn4Cc3cc(OC)c(CNC[C@@H]4CCC(=O)N4)cc3Cl)c2Cl)ccc1CNC[C@@H]1CCC(=O)N1` [Compound 58], the EC50 was determined as 69 nM.
The same measure for `COc1cc(-c2cccc(-c3cccc4c3cnn4Cc3cc(OC)c(CN[C@H]4CC[C@@H](C(=O)O)CC4)cc3Cl)c2Cl)ccc1CNC[C@@H]1CCC(=O)N1` [Compound 59]: 37 nM.
On to `COc1cc(-c2cccc(-c3cccc4c3cnn4Cc3cc(OC)c(CN(C)[C@H]4CC[C@@H](C(=O)O)CC4)cc3Cl)c2Cl)ccc1CNC[C@@H]1CCC(=O)N1` [Compound 60], for which the EC50 stood at 33 nM.
The same measure for `COc1cc(Cn2ncc3c(-c4cccc(-c5ccc(CN6CC[C@@H](O)C6)cc5)c4Cl)cccc32)c(Cl)cc1CNC[C@H]1CC[C@H](C(=O)O)CC1` [Compound 63]: 950 nM; for `COc1cc(Cn2ncc3c(-c4cccc(-c5ccc(CN6CC[C@@H](C(=O)O)C6)cc5)c4Cl)cccc32)c(Cl)cc1CN1CC[C@@H](O)C1` [Compound 69]: 805 nM; for `COc1cc(Cn2ncc3c(-c4cccc(-c5ccc(CN6CC[C@@H](C(=O)O)C6)c(OC)c5)c4Cl)cccc32)c(Cl)cc1CNC[C@@H]1CCC(=O)N1` [Compound 70]: 222 nM.
The same measure for `COc1cc(Cn2ncc3c(-c4cccc(-c5ccc(CN6CC[C@@H](C(=O)O)C6)c(OC)c5)c4Cl)cccc32)c(Cl)cc1CN1CC[C@@H](O)C1` [Compound 71]: 693 nM; for `COc1cc(Cn2ncc3c(-c4cccc(-c5ccc(CNC[C@@H]6CCC(=O)N6)cc5)c4Cl)cccc32)c(C#N)cc1CN[C@@H](CO)C(=O)O` [Compound 75]: 142 nM.
The value for `COc1cc(Cn2ncc3c(-c4cccc(-c5ccc(CNC[C@@H]6CCC(=O)N6)cc5)c4Cl)cccc32)c([N+](=O)[O-])cc1CN[C@@H](CO)C(=O)O` [Compound 76] was 49 nM; that for `COc1nc(Cn2ncc3c(-c4cccc(-c5ccc(CNC[C@@H]6CCC(=O)N6)cc5)c4Cl)cccc32)c(Cl)cc1CN[C@@H](CO)C(=O)O` [Compound 80] was 302 nM.
For `COc1cc(Cn2nc(F)c3c(-c4cccc(-c5ccc(CNC[C@@H]6CCC(=O)N6)cc5)c4Cl)cccc32)c(Cl)cc1CN[C@@H](CO)C(=O)O` [Compound 83], the EC50 amounted to 92 nM.
For `COc1cc(Cn2ncc3c(-c4cccc(-c5ccc(CNC[C@@H]6CCC(=O)N6)cc5)c4Cl)cccc32)c(Cl)cc1CNCc1nnn[nH]1` [Compound 85], the EC50 is 469 nM.
The same measure for `O=C(O)COc1cc(Cn2ncc3c(-c4cccc(-c5ccc(CNC[C@@H]6CCC(=O)N6)cc5)c4Cl)cccc32)c(Cl)cc1CNCCO` [Compound 86]: 395 nM; for `COc1cc(-c2cccc(-c3cccc4c3cnn4Cc3cc(OC)c(CN4CC[C@@H](C(=O)O)C4)cc3Cl)c2Cl)ccc1CN1CC[C@@H](O)C1` [Compound 87]: 692 nM; for `COc1cc(-c2cccc(-c3cccc4c3cnn4Cc3cc(OC)c(CN4CC[C@@H](C(=O)O)C4)cc3Cl)c2Cl)ccc1CNCCO` [Compound 88]: 80 nM.
The value for `COc1cc(Cn2ncc3c(-c4cccc(-c5ccc(CNC[C@@H]6CCC(=O)N6)cc5)c4Cl)cccc32)c(N)cc1CN[C@@H](CO)C(=O)O` [Compound 89] was 1110 nM; that for `COc1cc(-c2cccc(-c3cccc4c3cnn4Cc3cc(OC)c(CN4CC[C@@H](C(=O)O)C4)cc3Cl)c2C)ccc1CNC[C@@H]1CCC(=O)N1` [Compound 90] was 150 nM; that for `COc1cc(Cn2ncc3c(-c4cccc(-c5ccc(CNC[C@@H]6CCC(=O)N6)c(OC)n5)c4Cl)cccc32)c(Cl)cc1CN(C)CC1CCC(C(=O)O)CC1` (stereo partly shown) [Compound 91] was 92 nM.
The value for `COc1cc(-c2cccc(-c3cccc4c3cnn4Cc3cc(OC)c(CN(C)C4CCC(C(=O)O)CC4)cc3[N+](=O)[O-])c2Cl)ccc1CNC[C@@H]1CCC(=O)N1` (stereo partly shown) [Compound 92] was 15 nM; that for `COc1cc(-c2cccc(-c3cccc4c3cnn4Cc3cc(OC)c(CN(C)[C@H]4C[C@H](C(=O)O)C4)cc3Cl)c2Cl)ccc1CNC[C@@H]1CCC(=O)N1` [Compound 93] was 21 nM; that for `COc1cc(-c2cccc(-c3cccc4c3cnn4Cc3cc(OC)c(CN4CCC(CC(=O)O)CC4)cc3Cl)c2Cl)ccc1CNC[C@@H]1CCC(=O)N1` [Compound 94] was 142 nM.
In the case of `COc1cc(-c2cccc(-c3cccc4c3cnn4Cc3cc(OC)c(CN(C)[C@H]4CC[C@H](CC(=O)O)CC4)cc3Cl)c2Cl)ccc1CNC[C@@H]1CCC(=O)N1` [Compound 95], the EC50 was 15 nM.
The same measure for `COc1cc(-c2cccc(-c3cccc4c3cnn4Cc3cc(OC)c(CN(C)CC4CCC(C(=O)O)CC4)cc3[N+](=O)[O-])c2Cl)ccc1CNC[C@@H]1CCC(=O)N1` (stereo partly shown) [Compound 96]: 45 nM; for `CCOc1cc(-c2cccc(-c3cccc4c3cnn4Cc3cc(OC)c(CN(C)CC4CCC(C(=O)O)CC4)cc3Cl)c2Cl)ccc1CNC[C@@H]1CCC(=O)N1` (stereo partly shown) [Compound 97]: 273 nM; for `COc1cc(Cn2ncc3c(-c4cccc(-c5ccc(CNC[C@@H]6CCC(=O)N6)c(OC(C)C)c5)c4Cl)cccc32)c(Cl)cc1CN(C)CC1CCC(C(=O)O)CC1` (stereo partly shown) [Compound 98]: 520 nM.
The same measure for `COc1cc(-c2cccc(-c3cccc4c3cnn4Cc3cc(OC)c(CN4CC[C@H](CC(=O)O)C4)cc3Cl)c2Cl)ccc1CNC[C@@H]1CCC(=O)N1` [Compound 99]: 62 nM; for `COc1cc(Cn2ncc3c(-c4cccc(-c5ccc(CN(C)C[C@@H]6CCC(=O)N6)c(OC)c5)c4Cl)cccc32)c(Cl)cc1CN(C)CC1CCC(C(=O)O)CC1` (stereo partly shown) [Compound 100]: 745 nM.
The same measure for `COc1cc(Cn2ncc3c(-c4cccc(-c5cc(F)c(CNC[C@@H]6CCC(=O)N6)c(OC)c5)c4Cl)cccc32)c(Cl)cc1CN(C)CC1CCC(C(=O)O)CC1` (stereo partly shown) [Compound 101]: 87 nM.
With `COc1cc(Cn2ncc3c(-c4cccc(-c5cc(OC)c(CNC[C@@H]6CCC(=O)N6)c(OC)c5)c4Cl)cccc32)c(Cl)cc1CN(C)CC1CCC(C(=O)O)CC1` (stereo partly shown) [Compound 102], the EC50 is 735 nM.
The value for `COc1cc(-c2cccc(-c3cccc4c3cnn4Cc3cc(OC)c(CN(C)C4CCC(C(=O)O)CC4)cc3S(C)(=O)=O)c2Cl)ccc1CNC[C@@H]1CCC(=O)N1` (stereo partly shown) [Compound 103] was 208 nM; that for `COc1cc(-c2cccc(-c3cccc4c3cnn4Cc3cc(OC)c(CN(C)[C@H]4C[C@@H](C(=O)O)C4)cc3Cl)c2Cl)ccc1CNC[C@@H]1CCC(=O)N1` [Compound 104] was 46 nM.
`COc1cc(-c2cccc(-c3cccc4c3cnn4Cc3cc(OC)c(CN(C)C45CCC(C(=O)O)(CC4)CC5)cc3Cl)c2Cl)ccc1CNC[C@@H]1CCC(=O)N1` [Compound 105]: the EC50 came out at 20 nM.
The value for `COc1cc(-c2cccc(-c3cccc4c3cnn4Cc3cc(OC)c(CN(C)C4CC5(CC(C(=O)O)C5)C4)cc3Cl)c2Cl)ccc1CNC[C@@H]1CCC(=O)N1` (stereo partly shown) [Compound 106] was 43 nM.
